From patent US7060822B1, “2-pyrazolin-5-ones” (Abbott GmbH & Co. KG, priority 1999, dated 2006)

SMILES	melting point
CCOC1=NNC(=O)C1=Cc1[nH]c(Cl)c(CC(=O)OC)c1C(=O)OC [Example 156, 4-[(5-Chloro-3-methoxycarbonyl-4-methoxycarbonylmethylpyrrol-2-yl)methylene]-3-ethoxy-2-pyrazolin-5-one]	225 to 227 °C
CCOC1=NNC(=O)C1=Cc1cc(Br)c[nH]1 [Example 112, 4-[(4-Bromopyrrol-2-yl)methylene]-3-ethoxy-2-pyrazolin-5-one]	242 to 244 °C
Cn1cc(C=C2C(=O)NN=C2CCc2ccc(O)cc2)c2ccccc21 [Example 251, 3-(4-Hydroxyphenylethyl)-4-[(1-methylindol-3-yl)methylene]-2-pyrazolin-5-one]	255 to 257 °C
O=C1NN=C(Nc2ccc(F)cc2)C1=Cc1c[nH]c2ccccc12 [Example 242, 3-(4-Fluorophenylamino)4-[(indol-3-yl)methylene]--2-pyrazolin-5-one]	251 to 252 °C
O=C1NN=C(CCc2ccc(O)cc2)C1=Cc1ccc[nH]1 [Example 27, 3-(4-Hydroxyphenylethyl)-4-[(pyrrol-2-yl)methylene]-2-pyrazolin-5-one]	253 to 255 °C
CCOC(=O)c1c(C)[nH]c(C=C2C(=O)NN=C2CCc2ccc(N)cc2)c1C [Example 50, 3-(4-Aminophenylethyl)-4-[(3,5-dimethyl-4-ethoxycarbonylpyrrol-2-yl)methylene]-2-pyrazolin-5-one]	186 to 188 °C
COc1ccc(OCC2=NNC(=O)C2=Cc2ccc[nH]2)cc1 [Example 3, 3-(4-Methoxyphenyloxymethyl)-4-[(pyrrol-2-yl)methylene]-2-pyrazolin-5-one]	177 to 180 °C
Cc1[nH]c(C=C2C(=O)NN=C2C2CC2)c(C)c1C(=O)OCCN(C)C [Example 119, 3-Cyclopropyl-4-{[3,5-dimethyl-4-(2-dimethylaminoethyloxycarbonyl)pyrrol-2-yl]methylene}-2-pyrazolin-5-one]	172 to 174 °C
O=C1NN=C(C2CC2)C1=Cc1cc(Cl)c[nH]1 [Example 114, 4[(4-Chloropyrrol-2-yl)methylene]-3-cyclopropyl-2-pyrazolin-5-one]	220 °C (dec.)
CC(C)OC1=NNC(=O)C1=Cc1cn(C(C)C)c2ccccc12 [Example 250, 3-Isopropoxy-4-[(1-isopropylindol-3-yl)methylene]-2-pyrazolin-5-one]	161 to 163 °C
COc1ccc(CCC2=NNC(=O)C2=Cc2c[nH]c3ccccc23)cc1 [Example 231, 4-[(Indol-3-yl)methylene]-3-(4-methoxyphenylethyl)-2-pyrazolin-5-one]	266 to 268 °C
CCOC1=NNC(=O)C1=Cc1[nH]c(C)c(C(=O)CN(C)C)c1C [Example 189, 4-[(3,5-Dimethyl-4-dimethylaminoacetylpyrrol-2-yl)methylene]-3-ethoxy-2-pyrazolin-5-one]	198 °C
CCOC(=O)c1c[nH]c(C=C2C(=O)NN=C2C2CC2)c1-c1ccccc1 [Example 140, 3-Cyclopropyl-4-[(4-ethoxycarbonyl-3-phenylpyrrol-2-yl)methylene]-2-pyrazolin-5-one]	218 to 220 °C
O=C1NN=C(CCc2ccc(O)cc2)C1=Cc1cn(CCCCO)c2ncccc12 [Example 342, 4-{[1-(4-Hydroxybutyl)-7-azaindol-3-yl]methylene}-3-(4-hydroxyphenylethyl)-2-pyrazolin-5-one]	211 to 212 °C
Cc1n[nH]cc1C=C1C(=O)NN=C1C1CC1 [Example 363, 3-Cyclopropyl-4-[(3-methylpyrazol-4-yl)methylene]-2-pyrazolin-5-one]	265 to 267 °C
CC(C)OC1=NNC(=O)C1=Cc1cc[nH]c1 [Example 369, 3-Isopropoxy-4-[(pyrrol-3-yl)methylene]-2-pyrazolin-5-one]	252 to 255 °C
O=C1NN=C(Nc2ccccc2)C1=Cc1c[nH]c2ccccc12 [Example 220, 4-[(Indol-3-yl)methylene]-3-phenylamino-2-pyrazolin-5-one]	265 to 267 °C
Cc1ccc(CCC2=NNC(=O)C2=Cc2ccc[nH]2)cc1 [Example 29, 3-(4-Methylphenylethyl)-4-[(pyrrol-2-yl)methylene]-2-pyrazolin-5-one]	153 to 154 °C
CCOC(=O)CC1=NNC(=O)C1=Cc1ccc[nH]1 [Example 53, 3-(Ethoxycarbonylmethyl)-4-[(pyrrol-2-yl)methylene]-2-pyrazolin-5-one]	124 to 126 °C
O=C1NN=C(C2CC2)C1=Cc1ncc[nH]1 [Example 365, 3-Cyclopropyl-4-[(imidazol-2-yl)methylene]-2-pyrazolin-5-one]	264 to 266 °C

Continued, values first:

melting point	SMILES
228 to 230 °C	Cc1cc(C)c(C=C2C(=O)NN=C2c2ccccn2)[nH]1 [Example 124, 4-[(3,5-Dimethylpyrrol-2-yl)methylene]-3-(2-pyridyl)-2-pyrazolin-5-one]
239 to 240 °C	CC(C)OC1=NNC(=O)C1=Cc1cn(C)c2ccccc12 [Example 248, 3-Isopropoxy-4-[(1-methylindol-3-yl)methylene]-2-pyrazolin-5-one]
211 to 214 °C	O=C1NN=C(c2cnccn2)C1=Cc1cc(CN2CCC(Cc3ccccc3)CC2)c[nH]1 [Example 180, 4-{[4-(4-Benzylpiperidino)methylpyrrol-2-yl]methylene}-3-pyrazinyl-2-pyrazolin-5-one]
210 to 218 °C	Cc1[nH]c(C=C2C(=O)NN=C2c2cnccn2)c(C)c1CCNC1CC1 [Example 203, 4-{[4-(2-Cyclopropylaminoethyl)-3,5-dimethylpyrrol-2-yl]methylene}-3-pyrazinyl-2-pyrazolin-5-one]
223 to 225 °C	Cc1[nH]c(C=C2C(=O)NN=C2c2cnccn2)c(C)c1C(=O)OCCN(C)C [Example 120, 4-{[3,5-Dimethyl-4(2-dimethylaminoethyloxycarbonyl)pyrrol-2-yl]methylene}-3-pyrazinyl-2-pyrazolin-5-one]
317 to 319 °C	O=C1NN=C(CCc2ccccc2)C1=Cc1c[nH]c2ncccc12 [Example 357, 4-[(7-Azaindol-3-yl)methylene]-3-phenylethyl-2-pyrazolin-5-one]
214 to 216 °C	CCOC(=O)c1c(C)[nH]c(C=C2C(=O)NN=C2c2cccc(N)c2)c1C [Example 162, 3-(3-Aminophenyl)-4-[(3,5-Dimethyl-4-ethoxycarbonylpyrrol-2-yl)methylene]-2-pyrazolin-5-one]
245 to 247 °C	O=C1NN=C(c2ccc[nH]2)C1=Cc1ccc[nH]1 [Example 67, 3-(Pyrrol-2-yl)-4-[(pyrrol-2-yl)methylene]-2-pyrazolin-5-one]
300 to 302 °C	O=C1NN=C(C2CCC2)C1=Cc1c[nH]c2ncccc12 [Example 345, 4-[(7-Azaindol-3-yl)methylene]-3-cyclobutyl-2-pyrazolin-5-one]
238 to 240 °C	O=C1NN=C(C2CC2)C1=Cc1cc2ccccc2[nH]1 [Example 311, 3-Cyclopropyl-4-[(indol-2-yl)methylene]-2-pyrazolin-5-one]
258 to 260 °C	CN(C)C1=NNC(=O)C1=Cc1c[nH]c2ccccc12 [Example 270, 3-Dimethylamino-4-[(indol-3-yl)methylene]-2-pyrazolin-5-one]
208.1 °C	CCN(CC)CCCc1c(C)[nH]c(C=C2C(=O)NN=C2c2cnccn2)c1C [Example 186, 4-{[4-(3-Diethylaminopropyl)-3,5-dimethylpyrrol-2-yl]methylene}-3-pyrazinyl-2-pyrazolin-5-one]
205 to 208 °C	Cc1[nH]c(C=C2C(=O)NN=C2c2cnccn2)c(C)c1CN.O=C(O)/C=C\C(=O)O [Example 179, 4-[(4-Aminomethyl-3,5-dimethylpyrrol-2-yl)methylene]-3-pyrazinyl-2-pyrazolin-5-one maleate]
168 to 170 °C	CCOC(=O)c1c(C)[nH]c(C=C2C(=O)NN=C2C(C)Cc2ccccc2)c1C (stereo not shown) [Example 150, 4-[(3,5-Dimethyl-4-ethoxycarbonylpyrrol-2-yl)methylene]-3-(1-methyl-2-phenylethyl)-2-pyrazolin-5-one]
221 to 223 °C	CC(C)OC1=NNC(=O)C1=Cc1cc2ccccc2[nH]1 [Example 306, 4-[(Indol-2-yl)methylene]-3-isopropoxy-2-pyrazolin-5-one]
210 to 211 °C	O=C1NN=C(c2ccccc2)C1=Cc1cc2ccccc2[nH]1 [Example 321, 4-[(Indol-2-yl)methylene]-3-phenyl-2-pyrazolin-5-one]
245 to 247 °C	Cc1cccc2c(C=C3C(=O)NN=C3OC(C)C)cn(C)c12 [Example 294, 4-[(1,7-Dimethylindol-3-yl)methylene]-3-isopropoxy-2-pyrazolin-5-one]
226 to 228 °C	Cc1c[nH]c(C=C2C(=O)NN=C2Cc2ccccc2)c1CCC(=O)O [Example 8, 3-Benzyl-4-{[3-(2-carboxyethyl)-4-methylpyrrol-2-yl]methylene}-2-pyrazolin-5-one]
202 °C (dec.)	CN(C)Cc1c(C=C2C(=O)NN=C2C2CC2)[nH]c2ccccc12 [Example 312, 3-Cyclopropyl-4-[(3-dimethylaminomethylindol-2-yl)methylene]-2-pyrazolin-5-one]
273 to 275 °C	Cc1[nH]c(C=C2C(=O)NN=C2c2cnccn2)c(C)c1CCCO [Example 187, 4-{[3,5-Dimethyl-4-(3-hydroxypropyl)pyrrol-2-yl]methylene}-3-pyrazinyl-2-pyrazolin-5-one]
> 300 °C	NC1=NNC(=O)C1=Cc1c[nH]c2ncccc12 [Example 337, 3-Amino-4-[(7-azaindol-3-yl)methylene]-2-pyrazolin-5-one]
300 to 302 °C	COc1ccc(OCC2=NNC(=O)C2=Cc2c[nH]c3ncccc23)cc1 [Example 335, 4-[(7-Azaindol-3-yl)methylene]-3-(4-methoxyphenyloxymethyl)-2-pyrazolin-5-one]
213 °C (dec.)	Cc1[nH]c(C=C2C(=O)NN=C2c2cnccn2)c(C)c1C(=O)CCCl [Example 175, 4-{[4-(3-Chloropropionyl)-3,5-dimethylpyrrol-2-yl]methylene}-3-pyrazinyl-2-pyrazolin-5-one]
